In patent USRE50528E1, “Compounds and compositions for modulating EGFR mutant kinase activities” (Yuhan Corporation, priority 2014, dated 2025) one finds IC50 data, which are given here for 23 molecules.

pIC50: −log10 of the molar value. Like-named read-outs stand apart in the source and are kept apart here.

The target of one test is T1, EGFR mutant L858R (Homo sapiens, UniProt P00533, L858R).
T1 construct: truncated human JAK3, EGFR mutants such as del E746-A750; purchased Carna Biosciences
Nature of the test: Kinase inhibition assay, EGFR L858R.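 Note: truncated human EGFR L858R kinase with compound preincubation, ULight-PolyGT peptide phosphorylation read by Europium-antibody Lance detection, IC50.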 To be noted: read-out: EGFR mutants L858R. The format is biochemical.

The target in a further test is T2, SYK (Homo sapiens, UniProt P43405).
T2 construct: Purified human, full-length SYK, KDR; purchased Carna Biosciences
Nature of the test: Kinase inhibition assay, SYK.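 Note: purified full-length human SYK pre-incubated 30 min with compound, then ULight-TK peptide phosphorylation for 1 h, detected with Europium-labeled antibody in Lance buffer.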 The format is biochemical. As to conditions: biochemical potency.

The next test has as its target T3, EGFR mutant L858R/T790M (Homo sapiens, UniProt P00533, L858R/T790M).
T3 construct: truncated human JAK3, EGFR mutants such as del E746-A750; purchased Carna Biosciences
Nature of the test: Kinase inhibition assay, EGFR L858R/T790M.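 Note: truncated human enzyme preincubated two hours with compound, then one hour with one millimolar ATP and ULight-PolyGT peptide, Europium-labeled antibody detection, IC50.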 As to conditions: read-out: EGFR mutants L858R/T790M. It counts as biochemical.

The target in test [1] is T4, EGFR mutant Del19 (E746-A750) (Homo sapiens, UniProt P00533, DEL746-750).
T4 construct: truncated human JAK3, EGFR mutants such as del E746-A750; purchased Carna Biosciences
Nature of the test: Kinase inhibition assay, EGFR del E746-A750.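 Note: truncated human EGFR mutant kinase, two-hour preincubation with compound, then one-hour reaction with ATP and ULight-PolyGT peptide, LANCE Europium-antibody phosphorylation readout, IC50.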 The format is biochemical. As to conditions: read-out: EGFR mutants Del19 (E746-A750).

In the next test the target is T5, EGFR mutant T790M (Homo sapiens, UniProt P00533, T790M).
T5 construct: truncated human JAK3, EGFR mutants such as del E746-A750; purchased Carna Biosciences
As to the kind of experiment: Kinase inhibition assay, EGFR mutant T790M.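 Note: truncated human EGFR mutant enzyme preincubated two hours with compound, then ATP plus ULight-PolyGT peptide for one hour, Europium-labeled antibody LANCE detection, IC50.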 As to conditions: biochemical potency.

In the case of `C=CC(=O)Nc1cc(Nc2nccc(-n3cc(CO)c(C)n3)n2)c(OC)cc1N1CCOCC1` [Compound 66, N-(5-(4-(4-(hydroxymethyl)-3-methyl-1H-pyrazol-1-yl)pyrimidin-2-ylamino)-4-methoxy-2-morpholinophenyl)acrylamide], the pIC50 on EGFR mutant L858R was 6.70 to 7.70; against SYK, below 6.00; at EGFR mutant L858R/T790M, above 7.70; in test [1], above 7.70; against EGFR mutant T790M, 6.70 to 7.70.

Consider `C=CC(=O)Nc1cc(Nc2nccc(-n3cc(CN4CC(O)C4)c(C)n3)n2)c(OC)cc1-c1cnn(C)c1` [Compound 58, N-(5-(4-(4-((3-hydroxyazetidin-1-yl)methyl)-3-methyl-1H-pyrazol-1-yl)pyrimidin-2-ylamino)-4-methoxy-2-(1-methyl-1H-pyrazol-4-yl)phenyl)acrylamide], for which the pIC50 against SYK is 6.00 to 6.70; against EGFR mutant T790M, 6.70 to 7.70.

Turning to `C=CC(=O)Nc1ccc(OC)c(Nc2ncc(C)c(-n3cc(CN4CC(O)C4)cn3)n2)c1` [Compound 11, N-(3-(4-(4-((3-hydroxyazetidin-1-yl)methyl)-1H-pyrazol-1-yl)-5-methylpyrimidin-2-ylamino)-4-methoxyphenyl)acrylamide], the pIC50 against SYK was 6.70 to 7.70; at EGFR mutant T790M, above 7.70.

For the molecule “N-(5-(4-(4-(azetidin-1-ylmethyl)-3-methyl-1H-pyrazol-1-yl)pyrimidin-2-ylamino)-4-methoxy-2-(1H-pyrazol-1-yl)phenyl)acrylamide [Compound 53]”, the pIC50 on EGFR mutant L858R (biochemical potency, 1 mM ATP) was 6.70 to 7.70; on SYK, below 6.00; at EGFR mutant L858R/T790M (biochemical potency, 1 mM ATP) it was 6.70 to 7.70; at EGFR mutant T790M, 6.70 to 7.70.

`C=CC(=O)Nc1cc(Nc2nccc(-n3cc(CN(C)C)c(C(C)(C)C)n3)n2)c(OC)cc1N1CCCC1` [Compound 104, N-(5-(4-(3-tert-butyl-4-((dimethylamino)methyl)-1H-pyrazol-1-yl)pyrimidin-2-ylamino)-4-methoxy-2-(pyrrolidin-1-yl)phenyl)acrylamide]: the results for the pIC50 on SYK and at EGFR mutant T790M were below 6.00 and above 7.70, respectively.

For the molecule `C=CC(=O)Nc1cc(Nc2ncc(C)c(-n3cc(CN4CC[C@@H](O)C4)c(C)n3)n2)c(OC)cc1N1CCOCC1` [Compound 27, (R)—N-(5-(4-(4-((3-hydroxypyrrolidin-1-yl)methyl)-3-methyl-1H-pyrazol-1-yl)-5-methylpyrimidin-2-ylamino)-4-methoxy-2-morpholinophenyl)acrylamide], the pIC50 on SYK is below 6.00; against EGFR mutant T790M it was above 7.70.

As for `C=CC(=O)Nc1cc(Nc2nccc(-n3cc(CN4CCC4)c(C(C)(C)C)n3)n2)c(OC)cc1N(C)C1COC1` [Compound 103, N-(5-(4-(4-(azetidin-1-ylmethyl)-3-tert-butyl-1H-pyrazol-1-yl)pyrimidin-2-ylamino)-4-methoxy-2-(methyl(oxetan-3-yl)amino)phenyl)acrylamide], the pIC50 (on EGFR mutant L858R; at EGFR mutant L858R/T790M; in test [1]; on EGFR mutant T790M) was above 7.70 throughout.

`C=CC(=O)Nc1cc(Nc2nccc(-n3cc(CN4CCC4)c(C4CC4)n3)n2)c(OC)cc1N1CCCC1` [Compound 111, N-(5-(4-(4-(azetidin-1-ylmethyl)-3-cyclopropyl-1H-pyrazol-1-yl)pyrimidin-2-ylamino)-4-methoxy-2-(pyrrolidin-1-yl)phenyl)acrylamide]: the pIC50 against SYK was below 6.00; against EGFR mutant T790M, 6.70 to 7.70.

Take `C=CC(=O)Nc1cc(Nc2ncc(C)c(-n3cc(CN4C[C@@H](O)[C@@H](O)C4)cn3)n2)c(OC)cc1N1CCOCC1` [Compound 20, N-(5-(4-(4-(((3R,4S)-3,4-dihydroxypyrrolidin-1-yl)methyl)-1H-pyrazol-1-yl)-5-methylpyrimidin-2-ylamino)-4-methoxy-2-morpholinophenyl)acrylamide]: the values for the pIC50 against SYK and against EGFR mutant T790M were 6.00 to 6.70 and above 7.70, respectively.

In the case of `C=CC(=O)Nc1cc(Nc2ncc(F)c(-n3cc(CN4C[C@H](O)[C@H](OC)C4)c(C)n3)n2)c(OC)cc1N1CCOCC1` [Compound 61, N-(5-(5-fluoro-4-(4-(((3S,4R)-3-hydroxy-4-methoxypyrrolidin-1-yl)methyl)-3-methyl-1H-pyrazol-1-yl)pyrimidin-2-ylamino)-4-methoxy-2-morpholinophenyl)acrylamide], the pIC50 on EGFR mutant L858R is 6.70 to 7.70; against SYK, below 6.00; at EGFR mutant L858R/T790M, 6.70 to 7.70; in test [1], 6.70 to 7.70; against EGFR mutant T790M, above 7.70.

As for `C=CC(=O)Nc1cc(Nc2ncc(F)c(-n3cc(C)c(CN(C)C)c3)n2)c(OC)cc1N(C)C` [Compound 143, N-(2-(dimethylamino)-5-(4-(3-((dimethylamino)methyl)-4-methyl-1H-pyrrol-1-yl)-5-fluoropyrimidin-2-ylamino)-4-methoxyphenyl)acrylamide], the pIC50 was 6.00 to 6.70 at SYK and above 7.70 on EGFR mutant T790M.

Take `C=CC(=O)Nc1cc(Nc2nccc(-n3cc(CN4CC(F)C4)c(C)n3)n2)c(OC)cc1N1CCOCC1` [Compound 72, N-(5-(4-(4-((3-fluoroazetidin-1-yl)methyl)-3-methyl-1H-pyrazol-1-yl)pyrimidin-2-ylamino)-4-methoxy-2-morpholinophenyl)acrylamide]: the pIC50 on EGFR mutant T790M was 6.70 to 7.70.

Turning to `C=CC(=O)Nc1cc(Nc2nccc(-n3cc(CN4CCC4)c(C(C)(C)C)n3)n2)c(OC)cc1N1CCCC1` [Compound 105, N-(5-(4-(4-(azetidin-1-ylmethyl)-3-tert-butyl-1H-pyrazol-1-yl)pyrimidin-2-ylamino)-4-methoxy-2-(pyrrolidin-1-yl)phenyl)acrylamide], the values for the pIC50 against SYK and against EGFR mutant T790M were below 6.00 and 6.70 to 7.70, respectively.

In the case of `C=CC(=O)Nc1cc(Nc2nccc(-n3cc(CN4CCC4)c(C)n3)n2)c(OC)cc1N1CCCCC1` [Compound 18, N-(5-(4-(4-(azetidin-1-ylmethyl)-3-methyl-1H-pyrazol-1-yl)pyrimidin-2-ylamino)-4-methoxy-2-(piperidin-1-yl)phenyl)acrylamide], the pIC50 on SYK is below 6.00; against EGFR mutant T790M, above 7.70.

Regarding `C=CC(=O)Nc1cc(Nc2nccc(-n3cc(CN4CCC4)c(C(C)(C)C)n3)n2)c(OC)cc1N(C)CCOC` [Compound 101, N-(5-(4-(4-(azetidin-1-ylmethyl)-3-tert-butyl-1H-pyrazol-1-yl)pyrimidin-2-ylamino)-4-methoxy-2-((2-methoxyethyl)(methyl)amino)phenyl)acrylamide], the pIC50 at EGFR mutant L858R was above 7.70; against SYK, below 6.00; at EGFR mutant L858R/T790M, above 7.70; in test [1], above 7.70; against EGFR mutant T790M, above 7.70.

With `C=CC(=O)Nc1cc(Nc2nccc(-n3cc(CN(C)C)c(-c4ccccc4)n3)n2)c(OC)cc1N1CCCC1` [Compound 98, N-(5-(4-(4-((dimethylamino)methyl)-3-phenyl-1H-pyrazol-1-yl)pyrimidin-2-ylamino)-4-methoxy-2-(pyrrolidin-1-yl)phenyl)acrylamide], the pIC50 on EGFR mutant L858R is 6.70 to 7.70; on EGFR mutant L858R/T790M it was 6.70 to 7.70; in test [1], above 7.70; against EGFR mutant T790M, 6.70 to 7.70.

In the case of `C=CC(=O)Nc1cc(Nc2ncc(C)c(-n3cc(CN4CC(O)C4)c(C)n3)n2)c(OC)cc1N1CCOCC1` [Compound 24, N-(5-(4-(4-((3-hydroxyazetidin-1-yl)methyl)-3-methyl-1H-pyrazol-1-yl)-5-methylpyrimidin-2-ylamino)-4-methoxy-2-morpholinophenyl)acrylamide], the pIC50 was 6.00 to 6.70 at SYK and above 7.70 at EGFR mutant T790M.

Molecule “N-(2-((2-(dimethylamino)ethyl)(methyl)amino)-5-(4-(3-((dimethylamino)methyl)-4-(trifluoromethyl)-1H-pyrrol-1-yl)-5-fluoropyrimidin-2-ylamino)-4-methoxyphenyl)acrylamide [Compound 144]” gave a pIC50 against EGFR mutant T790M above 7.70.

Take `C=CC(=O)Nc1cc(Nc2nccc(-n3cc(CN4CCC4)c(C(C)C)n3)n2)c(OC)cc1N1CCCC1` [Compound 117, N-(5-(4-(4-(azetidin-1-ylmethyl)-3-isopropyl-1H-pyrazol-1-yl)pyrimidin-2-ylamino)-4-methoxy-2-(pyrrolidin-1-yl)phenyl)acrylamide]: the pIC50 against SYK was below 6.00; on EGFR mutant T790M, above 7.70.

Take `C=CC(=O)Nc1cc(Nc2nccc(-n3cc(CN4CCC4)c(-c4ccccc4)n3)n2)c(OC)cc1N1CCCC1` [Compound 99, N-(5-(4-(4-(azetidin-1-ylmethyl)-3-phenyl-1H-pyrazol-1-yl)pyrimidin-2-ylamino)-4-methoxy-2-(pyrrolidin-1-yl)phenyl)acrylamide]: the pIC50 on EGFR mutant L858R is 6.70 to 7.70; on EGFR mutant L858R/T790M it was 6.70 to 7.70; in test [1] it was above 7.70; against EGFR mutant T790M it was 6.70 to 7.70.

Take `C=CC(=O)Nc1cc(Nc2nccc(-n3cc(CN(C)C)c(C(C)C)n3)n2)c(OC)cc1N1CCCC1` [Compound 116, N-(5-(4-(4-((dimethylamino)methyl)-3-isopropyl-1H-pyrazol-1-yl)pyrimidin-2-ylamino)-4-methoxy-2-(pyrrolidin-1-yl)phenyl)acrylamide]: the results for the pIC50 against SYK and against EGFR mutant T790M were below 6.00 and above 7.70, respectively.

In the case of `C=CC(=O)Nc1cc(Nc2nccc(-n3cc(CN4CCC4)c(C)n3)n2)c(OC)cc1N(C)CCN(C)C` [Compound 16, N-(5-(4-(4-(azetidin-1-ylmethyl)-3-methyl-1H-pyrazol-1-yl)pyrimidin-2-ylamino)-2-((2-(dimethylamino)ethyl)(methyl)amino)-4-methoxyphenyl)acrylamide], the pIC50 on SYK was below 6.00; at EGFR mutant T790M it was 6.70 to 7.70.

On to `C=CC(=O)Nc1ccc(OC)c(Nc2nccc(-n3ccc(C)n3)n2)c1` [Compound 9, N-(4-methoxy-3-(4-(3-methyl-1H-pyrazol-1-yl)pyrimidin-2-ylamino)phenyl)acrylamide], for which the pIC50 was below 6.00 against SYK and 6.70 to 7.70 at EGFR mutant T790M.
